Values joined by “and” are separate entries in the source; they are usually repeats but may differ in a detail not shown here. Equal entries are not always repeated. Values belong to the compound of their own block, whether it stands above or below them. Active and inactive are the calls of the source.
Columns and labels:
[1] = molecular target: E3 ubiquitin-protein ligase Mdm2 (Homo sapiens, UniProt Q00987); assay: enhancers of MDM2-luciferase reporter signal, concentration-effect titration, project on inhibitors of MDM2 ubiquitin ligase, cellular assay, luminescent readout, 384-well plate format (AID 1394); format: functional;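 further: MDM2 E3 inhibitors raise luminescence so EC50 is for signal enhancement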
[2] = Shn3 3'UTR reporter inhibitors, dose response, cell-based, Clone20 osteoblasts, firefly luciferase, cherry-picked (AID 624132); format: functional;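 further: firefly luciferase luminescence from reporter carrying the Shn3 3'UTR in osteoblasts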
[3] = HepG2 cell cytotoxicity, dose response, cytotoxicity control for Shn3 inhibitor project, CellTiter-Glo, cherry-picked (AID 624134); format: functional, cell-based
[4] = control 3'UTR Renilla luciferase suppression, dose response, counter-screen for Shn3 inhibitor project, cell-based, Clone20-Shn3RL, cherry-picked (AID 624133); format: functional
[5] = reduction of Shn3 3'UTR firefly luciferase signal, dose response, Schnurri-3 inhibitor project, cell-based, Clone20 osteoblasts, cherry-pick, set 2 (AID 720490); format: functional;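 further: actives lower the luminescence signal as inhibitors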
[6] = inhibitors of control Renilla luciferase reporter, dose response, counter-screen for Shn3 3'UTR targeting project, Clone20-Shn3RL cells, dual-Glo, cherry-pick, set 2 (AID 720724); format: functional, cell-based; settings: Dual-Go Shn3RL
[7] = molecular target: T1, Oxysterols receptor LXR-beta (Homo sapiens, UniProt P55055); format: functional, cell-based
T1 sequence (P55055 whole entry): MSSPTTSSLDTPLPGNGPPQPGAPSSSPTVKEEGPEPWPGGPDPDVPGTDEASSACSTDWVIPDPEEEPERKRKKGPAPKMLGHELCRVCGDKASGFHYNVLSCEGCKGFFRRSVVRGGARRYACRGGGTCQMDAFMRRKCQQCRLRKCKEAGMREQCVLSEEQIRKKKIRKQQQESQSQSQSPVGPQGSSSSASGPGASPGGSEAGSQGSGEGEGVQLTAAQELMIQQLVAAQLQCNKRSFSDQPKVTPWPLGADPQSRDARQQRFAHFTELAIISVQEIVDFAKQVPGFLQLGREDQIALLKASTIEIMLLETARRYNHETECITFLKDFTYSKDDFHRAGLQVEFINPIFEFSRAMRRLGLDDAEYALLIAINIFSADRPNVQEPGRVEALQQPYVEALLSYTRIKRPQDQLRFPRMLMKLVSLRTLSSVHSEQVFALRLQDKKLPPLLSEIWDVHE

[8] = cells
[9] = molecular target: G-protein coupled receptor 183 (Homo sapiens, UniProt P32249); assay: SAR confirmation of small molecule antagonists of the EBI2 receptor via a luminescent beta-arrestin assa.; format: functional
[10] = AlphaScreen signal interference compounds, dose response, artefact control for ARNT-TACC3 interaction inhibitor project, biochemical, luminescence, cherry-pick (AID 651705); format: functional;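 further: AlphaScreen bead proximity signal that flags compounds interfering with the detection technology; potency reflects signal decrease which marks the compound as an assay artifact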
[11] = HeLa 2N DNA content increase, dose response, cell-based, IC50 (AID 1117349); format: functional
[12] = Concentration-dependent survival of SW480 colon cancer line, luminescence detection with CellTiter-Glo, half-maximal inhibitory concentration (AID 1117338); format: functional
[13] = RKO cell viability reduction, dose response, CellTiter-Glo luminescence (AID 1117322); format: functional
[14] = cytotoxicity toward HCT116 cells – cell-based, CellTiter-Glo luminescence, IC50, dose response (AID 1117332); format: functional; settings: HCT-116
[15] = cytotoxicity toward Colo320 cells – cell-based, CellTiter-Glo luminescence, IC50, dose response (AID 1117334); format: functional; settings: COLO 320
[16] = HeLa 4N DNA content increase, dose response, cell-based, IC50 (AID 1117351); format: functional
[17] = cytotoxicity toward HT-29 cells – cell-based, CellTiter-Glo luminescence, IC50, dose response (AID 1117330); format: functional
[18] = CellTiter-Glo luminescent dose response of DLD-1 viability loss (AID 1117352); format: functional
[19] = HCT116 cell viability decrease, GSK3B pretreatment – CellTiter-Glo, IC50, dose response (AID 1117339); format: functional; settings: HCT-116
[20] = molecular target: T1, Oxysterols receptor LXR-beta; format: functional, cell-based; remark: listed apart in the source
[21] = molecular target: Cytochrome P450 2C19 (Homo sapiens, UniProt P33261); assay: qHTS Assay for Inhibitors and Substrates of Cytochrome P450 2C19. [Related pubchem assays: 410 ]; format: ADME; settings: read-out: Potency
[22] = molecular target: Cytochrome P450 2D6 (Homo sapiens, UniProt P10635); assay: qHTS Assay for Inhibitors and Substrates of Cytochrome P450 2D6. [Related pubchem assays: 410 ]; format: ADME; settings: read-out: Potency
[23] = P. falciparum Dd2 growth inhibitors, dose response, SYBR Green, dry powder samples, set 9 (AID 1159568); format: functional, cell-based
[24] = ADAM10 inhibitors, peptide cleavage, dose response, biochemical, QFRET (AID 743254);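 further: ADAM10 enzyme with the DM2 quenched FRET peptide as substrate; EDANS fluorescence gain as the protease cuts the substrate; inhibitor potency against ADAM10 proteolytic activity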
[25] = molecular target: Disintegrin and metalloproteinase domain-containing protein 17 (Homo sapiens, UniProt P78536); assay: ADAM17 protease inhibitors, dose response, counter-screen for ADAM10 exosite inhibitor project, biochemical, quenched FRET substrate (AID 743253)
[26] = molecular target: DNA repair and recombination protein RAD54-like (Homo sapiens, UniProt Q92698); assay: inhibitors of human RAD54 branch migration, confirmation, biochemical, fluorescence, cherry-picked samples, dose series (AID 651657); format: functional
[27] = molecular target: Genome polyprotein (Hepatitis C virus, UniProt Q2Q167); assay: HCV core protein dimerization inhibitors, dose response, biochemical, TR-FRET (AID 2159); design: species or system Hepacivirus hominis;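 further: blocks dimerization of HCV core protein measured by TR-FRET between tagged core106 pairs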
Genome polyprotein, sequence (Q2Q167 whole entry): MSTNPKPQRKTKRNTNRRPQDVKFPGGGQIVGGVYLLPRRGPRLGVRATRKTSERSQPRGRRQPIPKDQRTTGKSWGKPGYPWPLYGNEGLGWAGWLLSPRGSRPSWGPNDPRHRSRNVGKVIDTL

Cytochrome P450 2C19, sequence (P33261 whole entry): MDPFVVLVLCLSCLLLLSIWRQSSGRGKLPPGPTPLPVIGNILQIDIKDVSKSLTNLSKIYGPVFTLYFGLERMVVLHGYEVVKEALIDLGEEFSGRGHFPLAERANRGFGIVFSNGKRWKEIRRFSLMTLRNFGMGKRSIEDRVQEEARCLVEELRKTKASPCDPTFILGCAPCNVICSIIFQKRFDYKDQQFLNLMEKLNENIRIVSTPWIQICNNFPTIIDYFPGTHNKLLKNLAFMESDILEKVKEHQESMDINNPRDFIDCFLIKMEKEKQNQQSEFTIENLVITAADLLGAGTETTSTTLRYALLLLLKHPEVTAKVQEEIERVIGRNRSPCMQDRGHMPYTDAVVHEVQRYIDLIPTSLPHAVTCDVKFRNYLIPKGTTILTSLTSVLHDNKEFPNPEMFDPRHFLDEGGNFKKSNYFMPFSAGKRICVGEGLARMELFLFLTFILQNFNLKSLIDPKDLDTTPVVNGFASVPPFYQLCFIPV
Cytochrome P450 2D6, sequence (P10635 whole entry): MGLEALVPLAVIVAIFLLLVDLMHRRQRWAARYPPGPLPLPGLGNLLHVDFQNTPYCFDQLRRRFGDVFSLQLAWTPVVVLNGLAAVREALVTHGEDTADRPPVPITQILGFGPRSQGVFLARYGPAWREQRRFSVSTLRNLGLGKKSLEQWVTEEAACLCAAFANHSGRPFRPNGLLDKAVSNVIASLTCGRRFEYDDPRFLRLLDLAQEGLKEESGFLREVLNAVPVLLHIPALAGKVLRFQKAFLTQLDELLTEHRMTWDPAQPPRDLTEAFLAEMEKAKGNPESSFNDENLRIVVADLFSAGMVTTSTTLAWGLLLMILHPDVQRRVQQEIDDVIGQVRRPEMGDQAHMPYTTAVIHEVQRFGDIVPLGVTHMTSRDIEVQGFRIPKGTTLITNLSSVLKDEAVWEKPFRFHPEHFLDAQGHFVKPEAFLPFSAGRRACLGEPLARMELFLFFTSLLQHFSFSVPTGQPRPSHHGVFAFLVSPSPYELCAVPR
G-protein coupled receptor 183, sequence (P32249 whole entry): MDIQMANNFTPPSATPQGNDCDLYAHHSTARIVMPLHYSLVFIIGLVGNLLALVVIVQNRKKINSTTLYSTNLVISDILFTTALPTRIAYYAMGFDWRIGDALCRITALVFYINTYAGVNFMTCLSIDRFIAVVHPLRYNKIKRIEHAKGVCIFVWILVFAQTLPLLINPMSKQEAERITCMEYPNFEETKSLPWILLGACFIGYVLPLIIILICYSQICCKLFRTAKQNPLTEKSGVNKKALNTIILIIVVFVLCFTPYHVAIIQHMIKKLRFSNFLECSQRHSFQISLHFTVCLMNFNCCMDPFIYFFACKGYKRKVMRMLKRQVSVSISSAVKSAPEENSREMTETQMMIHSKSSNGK
Disintegrin and metalloproteinase domain-containing protein 17, sequence (P78536 whole entry, the tested form may be a part): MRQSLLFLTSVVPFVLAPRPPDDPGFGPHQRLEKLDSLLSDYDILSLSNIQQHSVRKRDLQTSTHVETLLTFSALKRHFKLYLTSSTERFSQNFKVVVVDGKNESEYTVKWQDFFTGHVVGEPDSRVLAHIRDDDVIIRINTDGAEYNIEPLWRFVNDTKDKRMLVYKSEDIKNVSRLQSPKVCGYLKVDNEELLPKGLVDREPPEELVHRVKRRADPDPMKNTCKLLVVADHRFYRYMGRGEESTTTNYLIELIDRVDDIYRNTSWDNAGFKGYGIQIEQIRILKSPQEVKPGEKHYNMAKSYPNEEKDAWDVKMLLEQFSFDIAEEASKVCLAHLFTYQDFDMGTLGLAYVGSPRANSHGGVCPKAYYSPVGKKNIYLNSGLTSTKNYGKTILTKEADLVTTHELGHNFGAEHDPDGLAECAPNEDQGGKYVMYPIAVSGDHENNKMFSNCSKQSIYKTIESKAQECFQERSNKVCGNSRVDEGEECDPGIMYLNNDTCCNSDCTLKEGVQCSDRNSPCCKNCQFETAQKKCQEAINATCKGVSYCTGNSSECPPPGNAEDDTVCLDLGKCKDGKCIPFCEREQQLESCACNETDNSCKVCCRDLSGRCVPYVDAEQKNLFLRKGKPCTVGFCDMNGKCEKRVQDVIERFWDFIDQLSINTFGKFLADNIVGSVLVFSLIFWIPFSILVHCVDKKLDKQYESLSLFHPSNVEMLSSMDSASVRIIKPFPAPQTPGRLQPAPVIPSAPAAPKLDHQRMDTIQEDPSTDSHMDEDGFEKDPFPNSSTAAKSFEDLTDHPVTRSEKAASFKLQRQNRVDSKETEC
DNA repair and recombination protein RAD54-like, sequence (Q92698 whole entry): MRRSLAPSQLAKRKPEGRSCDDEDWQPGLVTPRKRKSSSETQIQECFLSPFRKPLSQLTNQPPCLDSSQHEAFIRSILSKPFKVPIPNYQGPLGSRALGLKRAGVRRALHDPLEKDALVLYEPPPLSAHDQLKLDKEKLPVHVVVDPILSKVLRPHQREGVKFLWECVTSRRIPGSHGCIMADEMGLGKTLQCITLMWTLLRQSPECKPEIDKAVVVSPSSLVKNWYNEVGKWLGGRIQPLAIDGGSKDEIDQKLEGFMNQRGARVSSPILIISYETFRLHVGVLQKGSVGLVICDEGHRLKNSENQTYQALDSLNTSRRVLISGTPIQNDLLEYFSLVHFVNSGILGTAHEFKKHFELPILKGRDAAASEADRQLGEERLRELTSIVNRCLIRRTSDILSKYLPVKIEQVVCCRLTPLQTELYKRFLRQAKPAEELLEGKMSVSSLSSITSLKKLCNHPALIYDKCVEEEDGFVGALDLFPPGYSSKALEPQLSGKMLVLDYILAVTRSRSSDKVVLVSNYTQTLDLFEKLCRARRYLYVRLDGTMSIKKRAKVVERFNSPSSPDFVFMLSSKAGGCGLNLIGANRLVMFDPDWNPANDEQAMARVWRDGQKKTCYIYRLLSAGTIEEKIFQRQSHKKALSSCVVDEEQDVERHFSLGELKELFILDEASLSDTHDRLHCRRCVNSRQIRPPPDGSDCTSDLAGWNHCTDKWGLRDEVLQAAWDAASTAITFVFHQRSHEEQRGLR
E3 ubiquitin-protein ligase Mdm2, sequence (Q00987 whole entry): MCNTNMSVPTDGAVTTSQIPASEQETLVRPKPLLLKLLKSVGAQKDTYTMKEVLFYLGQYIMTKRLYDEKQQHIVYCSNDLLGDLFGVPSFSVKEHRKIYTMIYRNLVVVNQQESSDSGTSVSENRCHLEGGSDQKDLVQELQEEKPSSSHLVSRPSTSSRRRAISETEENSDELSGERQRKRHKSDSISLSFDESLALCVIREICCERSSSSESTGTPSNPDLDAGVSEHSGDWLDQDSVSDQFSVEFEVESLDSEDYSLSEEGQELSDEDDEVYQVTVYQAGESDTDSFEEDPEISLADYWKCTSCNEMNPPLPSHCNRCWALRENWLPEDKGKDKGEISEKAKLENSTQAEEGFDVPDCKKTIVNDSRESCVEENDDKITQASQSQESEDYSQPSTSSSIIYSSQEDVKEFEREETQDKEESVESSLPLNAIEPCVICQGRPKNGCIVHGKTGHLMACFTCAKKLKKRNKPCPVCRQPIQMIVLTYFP

SMILES: CCOC(=O)C1C(c2ccccc2)N(C)OC1(O)C(F)(F)F (stereo not given)
EC50 [1]: 9.58 µM (not active)

SMILES: CC(C)c1nc(SCC(=O)Nc2cccc(C(F)(F)F)c2)c2c(=O)n(C)c(=O)n(C)c2n1
AC50 [2]: 2.7 µM (active) | AC50 [3]: > 70 µM (inactive) | AC50 [4]: 13.2 µM (active) | AC50 [5]: 2.54 µM (active) | AC50 [6]: 3.53 µM (active)

SMILES: CSc1ccc(C2NN=C(c3ccccc3)S2)cc1 (stereo not given)
EC50 [7]: > 67.6 µM (inactive) | EC50 [8]: > 67.6 µM (inactive)

SMILES: COc1ccc(Nc2nnc(-c3ccc(C(N)=O)cc3)c3ccccc23)cc1
AC50 [10]: 104 µM (active)

SMILES: COc1cc(NCc2ccc3nc(N)nc(N)c3c2C)cc(OC)c1OC
IC50 [11]: > 10 µM (inactive) | IC50 [12]: 0.0591 µM (active) | IC50 [13]: 0.00272 µM (active) | IC50 [14]: 0.0231 µM (active) | IC50 [15]: 0.386 µM (active) | IC50 [16]: > 10 µM (inactive) | IC50 [17]: 0.0212 µM (active) | IC50 [18]: 0.195 µM (active) | IC50 [19]: 0.00392 µM (active)

SMILES: CCc1csc(N2[C@H](CO)[C@H](c3ccccc3)[C@@H]2CNC)n1
AC50 [23]: 7.33 µM (active)

Further lines, with some results ahead:

IC50 [9]: 0.0143 µM (active)
SMILES: O=C(/C=C/c1ccc(Cl)c(Cl)c1)N1CCN(Cc2ccc(Cl)cc2)CC1

EC50 [20]: > 67.6 µM (inactive)
SMILES: Cc1ccc(Nc2ncccc2C(N)=O)cc1[N+](=O)[O-]

AC50 ([22]; human): 3.16 µM (inconclusive) | AC50 [22]: 3.16 µM (inconclusive)
SMILES: CCCCC1CN2C(CCC(C)C2c2ccc(Br)cc2)C(=O)O1 (stereo not given)
AC50 [21]: 3.16 µM (inconclusive) and 7.94 µM (inconclusive)

IC50 [24]: > 69.5 µM (inactive) | IC50 [25]: > 69.5 µM (inactive)
SMILES: O=C(CSc1nnc(-c2cccs2)n1Cc1ccco1)Nc1ccc(Oc2ccccc2)cc1

AC50 [26]: 8.62 µM (active)
SMILES: CCOC(=O)c1cnc2c(C)c(Cl)ccc2c1NCCCN1CCOCC1

AC50 [21]: 3.98 µM (inconclusive)
SMILES: CC1C=CCCOC1c1ccccc1 (stereo not given)

IC50 [9]: 0.743 µM (active)
SMILES: O=C(/C=C/c1cc(Br)ccc1F)N1CCN(S(=O)(=O)c2ccc(Br)cc2)CC1

IC50 [27]: > 49.8 µM (not active)
SMILES: COc1ccc(-n2c(-c3ccc(Br)cc3)nc(=S)c3c2CCCC3)cc1
